Among the data in BindingDB's records for doi:10.1021/bi1017182 (University of California Riverside, 2011) are Kd values, retold here.

The target of the experiment is T1, Carbon monoxide dehydrogenase small chain (Afipia carboxidovorans (strain ATCC 49405 / DSM 1227 / KCTC 32145 / OM5), UniProt P19921).
T1 sequence (P19921 whole entry): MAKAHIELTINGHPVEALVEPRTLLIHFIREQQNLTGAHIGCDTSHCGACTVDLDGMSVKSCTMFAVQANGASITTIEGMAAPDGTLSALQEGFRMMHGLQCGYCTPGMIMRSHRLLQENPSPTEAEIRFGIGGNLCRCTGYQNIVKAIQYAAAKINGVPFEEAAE
Kind of experiment: Inhibition Assay. An excerpt:
Inhibition of CODH by Diphenyliodomium chloride. Inactivation of the FAD cofactor of CODH was accomplished by covalent modification of the flavin with diphenyliodonium chloride using a modification of the procedure of Chakraborty and Massey.

In the case of `O=C1C=CC(=O)C=C1` [1,4-Benzoquinone], binding was characterised by a dissociation constant (Kd) of 47.6 µM.
The same measure for `O=C1C=CC(=O)c2ccccc21` [1,4-dihydronaphthalene-1,4-dione]: 140 µM.

As a reminder, the Kd is a measure of binding affinity in units of concentration. Higher therefore signals a looser complex.
